Assay results from patent publication US6649608B2, “2,4-di(hetero-)arylamino (oxy)-5-substituted pyrimidines as antineoplastic agents” (AstraZeneca AB, priority 2000, dated 2003).

What was measured:
[1] = molecular target: T1, human Focal Adhesion Kinase (FAK) (Homo sapiens, UniProt Q05397); assay: FAK3 Kinase Inhibition Assay (in vitro enzyme ELISA); assay type: biochemical; conditions: read-out: FAK inhibitory activity IC50
T1 construct: FAK (fall length human cDNA described by Andre et al); made in house; host or cells: insect cells (Sf21; printed 'Sf12'), baculovirus, pFastbac 1; cell lysate supernatant used as enzyme stock
From the text: This assay determines the ability of a test compound to inhibit tyrosine kinase activity of human Focal Adhesion Kinase (FAK).
DNA encoding FAK is obtained by total gene synthesis (Edwards M, International Biotechnology Lab 5(3), 19-25, 1987) or by cloning. These are then expressed in a suitable expression system to obtain polypeptide with tyrosine kinase activity.
Active FAK protein has been previously expressed in a baculovirus system using a similar N-terminal 6-histidine tag (Protein Expression And Purification, 1996, 7: 12-18). The human FAK cDNA was cloned into the baculovirus transplacement vector, pFastbac 1 (Life Technologies), and the recombinant construct was co-transfected into insect cells (for example Spodoptera frugiperda 21(Sf21)) with viral DNA to prepare recombinant baculovirus (details of the methods for the assembly of recombinant DNA molecules and the preparation and use of recombinant baculovirus can be found in standard texts for example Sambrook et al, 1989, Molecular cloning—A Laboratory Manual, 2nd edition, Cold Spring Harbour Laboratory Press and O'Reilly et al, 1992, Baculovirus Expression Vectors—A Laboratory Manual, W.H. Freeman and Co, New York. Details specific to the use of the pFastbac (‘Bac to Bac’) system are provided in Anderson et al., 1995, FOCUS (Life Technologies Bulletin Magazine), 17, p53.) […]

CDK4/Cyclin D1 = molecular target: T2, CDK4/Cyclin D1 (Homo sapiens, UniProt P11802); assay: CDK4 Inhibition Assay (SPA, GST-Rb substrate); assay type: biochemical; conditions: in vitro kinase assay; read-out: CDK4 inhibitory activity IC50
T2 construct: made in house; host or cells: SF21 insect cells (Spodoptera frugiperda), baculovirus co-infection; vector pVL1393
Procedure: The compounds were tested in an in vitro kinase assay in 96 well format using Scintillation Proximity Assay (SPA—obtained from Amersham) for measuring incorporation of [γ-33-P]-Adenosine Triphosphate into a test substrate (GST-Retinoblastoma). In each well was placed the compound to be tested (diluted in DMSO and water to correct concentrations) and in control wells either p16 as an inhibitor control or DMSO as a positive control.
Approximately 0.5 μl of CDK4/Cyclin D1 partially-purified enzyme (amount dependent on enzyme activity) diluted in 25 μl incubation buffer was added to each well then 20 μl of GST-Rb/ATP/ATP33 mixture (containing 0.5 μg GST-Rb and 0.2 μM ATP and 0.14 μCi [γ-33-P]-Adenosine Triphosphate), and the resulting mixture shaken gently, then incubated at room temperature for 60 minutes. […]
The plates were sealed with Topseal-S plate sealers, left for two hours then spun at 2500 rpm, 1124×g., for 5 minutes. The plates were read on a Topcount for 30 seconds per well. […]
E. coli paste was resuspended in 10 ml/g of NETN buffer (50 mM Tris pH 7.5, 120 mM NaCl, 1 mM EDTA, 0.5% v/v NP-40, 1 mM PMSF, 1 ug/ml leupeptin, 1 ug/ml aprotinin and 1 ug/ml pepstatin) and sonicated for 2×45 seconds per 100 ml homogenate. […] The final product was analysed by Sodium Dodeca Sulfate (SDS) PAGE (Polyacrylamide gel) using 8-16% Tris-Glycine gels (Novex, San Diego, USA). […]

T1 sequence (Q05397 whole entry): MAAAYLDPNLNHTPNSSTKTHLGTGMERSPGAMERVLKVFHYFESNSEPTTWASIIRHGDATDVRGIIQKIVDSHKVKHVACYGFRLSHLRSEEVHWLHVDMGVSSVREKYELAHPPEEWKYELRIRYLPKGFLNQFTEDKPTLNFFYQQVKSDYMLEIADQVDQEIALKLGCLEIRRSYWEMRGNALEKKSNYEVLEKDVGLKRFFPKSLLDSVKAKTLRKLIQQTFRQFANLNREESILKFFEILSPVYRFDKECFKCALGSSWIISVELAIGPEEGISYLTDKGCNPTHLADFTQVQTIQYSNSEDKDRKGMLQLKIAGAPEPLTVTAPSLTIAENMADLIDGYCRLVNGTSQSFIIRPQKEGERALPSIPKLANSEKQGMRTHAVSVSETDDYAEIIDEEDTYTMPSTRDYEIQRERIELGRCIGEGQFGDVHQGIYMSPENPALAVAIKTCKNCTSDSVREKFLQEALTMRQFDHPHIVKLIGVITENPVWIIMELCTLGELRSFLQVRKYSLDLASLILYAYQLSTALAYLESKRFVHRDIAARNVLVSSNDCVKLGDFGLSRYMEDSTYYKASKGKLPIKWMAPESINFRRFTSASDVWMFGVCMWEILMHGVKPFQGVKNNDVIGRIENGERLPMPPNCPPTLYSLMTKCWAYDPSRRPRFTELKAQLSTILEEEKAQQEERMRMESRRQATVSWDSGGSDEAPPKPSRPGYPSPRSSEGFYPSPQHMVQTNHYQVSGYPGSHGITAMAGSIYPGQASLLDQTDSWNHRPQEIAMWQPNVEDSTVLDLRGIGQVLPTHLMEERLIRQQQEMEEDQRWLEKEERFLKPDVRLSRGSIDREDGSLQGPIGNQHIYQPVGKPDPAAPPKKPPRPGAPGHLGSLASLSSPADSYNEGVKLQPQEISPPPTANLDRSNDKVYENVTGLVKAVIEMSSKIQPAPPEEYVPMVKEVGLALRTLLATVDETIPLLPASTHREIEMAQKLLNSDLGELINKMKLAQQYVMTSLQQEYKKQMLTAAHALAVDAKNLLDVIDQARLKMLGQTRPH
T2 sequence (P11802 whole entry): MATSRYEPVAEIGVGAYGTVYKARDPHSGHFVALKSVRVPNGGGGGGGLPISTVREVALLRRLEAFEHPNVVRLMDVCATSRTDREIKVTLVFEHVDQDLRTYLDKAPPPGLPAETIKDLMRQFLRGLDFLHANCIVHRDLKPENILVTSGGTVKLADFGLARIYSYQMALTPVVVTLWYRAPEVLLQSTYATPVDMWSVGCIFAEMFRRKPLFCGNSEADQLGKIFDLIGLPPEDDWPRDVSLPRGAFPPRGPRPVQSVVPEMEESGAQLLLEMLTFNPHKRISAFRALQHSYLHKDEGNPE
T2 sequence (P24385 whole entry partner): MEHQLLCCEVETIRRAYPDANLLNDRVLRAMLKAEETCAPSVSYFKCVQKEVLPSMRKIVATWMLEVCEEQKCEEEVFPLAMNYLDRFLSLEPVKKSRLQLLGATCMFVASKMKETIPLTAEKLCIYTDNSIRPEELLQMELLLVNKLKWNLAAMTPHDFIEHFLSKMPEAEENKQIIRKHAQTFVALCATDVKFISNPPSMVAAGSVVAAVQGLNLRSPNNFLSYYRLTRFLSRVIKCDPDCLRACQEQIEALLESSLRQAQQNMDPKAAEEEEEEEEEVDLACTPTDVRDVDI

| Compound | IC50 [1] [nM] | IC50 (CDK4/Cyclin D1) [nM] |
| --- | --- | --- |
| CCCCN(CCCC)CCCNC(=O)c1ccc(Nc2ncc(Br)c(Nc3ccccc3)n2)cc1 [Example 47] | 97 | – |
| O=C(NCCN1CCCCC1)c1ccc(Nc2ncc(Br)c(Nc3ccccc3)n2)cc1 [Example 45] | – | 235 |
| O=C(c1ccc(Nc2ncc(Br)c(Nc3ccccc3)n2)cc1)N1CCC(N2CCCC2)CC1 [Example 52] | 814 | – |
